Results as given in PubChem BioAssay AID1259407 (Chemical Carcinogenesis Research Information System (CCRIS), 2018).
The source made the active and inactive calls. The rule behind the calls is not given here.

System: CCRIS mutagenicity, Ames/micronucleus/aberration tests
Assay: CCRIS mutagenicity studies
[1] = Test System: AMES SALMONELLA TYPHIMURIUM, Strain/Indicator: TA98, Metabolic Activation: NONE, Method: STANDARD PLATE
[2] = Test System: AMES SALMONELLA TYPHIMURIUM, Strain/Indicator: TA98, Metabolic Activation: RAT, LIVER, S-9, AROCLOR 1254, Method: STANDARD PLATE
[3] = Test System: AMES SALMONELLA TYPHIMURIUM, Strain/Indicator: TA100, Metabolic Activation: NONE, Method: STANDARD PLATE
[4] = Test System: AMES SALMONELLA TYPHIMURIUM, Strain/Indicator: TA100, Metabolic Activation: RAT, LIVER, S-9, AROCLOR 1254, Method: STANDARD PLATE

Measured: mutagenic call

O=C1c2ccccc2-c2ccc3ccccc3c21
inactive: [1] inactive; negative | [2] inactive; negative | [3] inactive; negative | [4] inactive; negative

[Cl][La]([Cl])[Cl]
inactive: Test System: E. COLI, Strain/Indicator: WP2 UVRA, Metabolic Activation: NONE, Method: SPOT TEST inactive; negative

Cc1ccc2nc3c(c(C)c2c1)[C@@H](O)[C@H](O)c1ccccc1-3
inactive: [4] inactive; negative

CCN[C@H](C)C[C@@H](C)NCC.[Cl-].[Cl-].[Pt+2]
inactive: Test System: AMES SALMONELLA TYPHIMURIUM, Strain/Indicator: TA97A, Metabolic Activation: NONE, Method: STANDARD PLATE inactive; negative | [3] inactive; negative

Nc1cc([N+](=O)[O-])c(N)cc1Cl
inactive: [3] inactive; negative | [4] inactive; negative | Test System: AMES SALMONELLA TYPHIMURIUM, Strain/Indicator: TA1535, Metabolic Activation: NONE, Method: STANDARD PLATE inactive; negative | Test System: AMES SALMONELLA TYPHIMURIUM, Strain/Indicator: TA1535, Metabolic Activation: RAT, LIVER, S-9, AROCLOR 1254, Method: STANDARD PLATE inactive; negative | Test System: AMES SALMONELLA TYPHIMURIUM, Strain/Indicator: TA1537, Metabolic Activation: NONE, Method: STANDARD PLATE inactive; negative | Test System: AMES SALMONELLA TYPHIMURIUM, Strain/Indicator: TA1537, Metabolic Activation: RAT, LIVER, S-9, AROCLOR 1254, Method: STANDARD PLATE inactive; negative
active: [1] active; positive | [2] active; positive | Test System: AMES SALMONELLA TYPHIMURIUM, Strain/Indicator: TA1538, Metabolic Activation: NONE, Method: STANDARD PLATE active; positive | Test System: AMES SALMONELLA TYPHIMURIUM, Strain/Indicator: TA1538, Metabolic Activation: RAT, LIVER, S-9, AROCLOR 1254, Method: STANDARD PLATE active; positive

CNS(=O)(=O)c1ccc(N)cc1
inactive: Test System: AMES SALMONELLA TYPHIMURIUM, Strain/Indicator: TA98, Metabolic Activation: NONE, Method: PREINCUBATION inactive; negative | Test System: AMES SALMONELLA TYPHIMURIUM, Strain/Indicator: TA98, Metabolic Activation: RAT, LIVER, S-9, AROCLOR 1254, Method: PREINCUBATION inactive; negative | Test System: AMES SALMONELLA TYPHIMURIUM, Strain/Indicator: TA100, Metabolic Activation: NONE, Method: PREINCUBATION inactive; negative | Test System: AMES SALMONELLA TYPHIMURIUM, Strain/Indicator: TA100, Metabolic Activation: RAT, LIVER, S-9, AROCLOR 1254, Method: PREINCUBATION inactive; negative
